{
  "source": "paper PMC4263271",
  "about": "(Nature, 2014)",
  "key": {"[1]": {"biological_target": "ATP5B (ATP synthase subunit beta) (Homo sapiens, UniProt P06576)", "sequence (P06576 48-529)": "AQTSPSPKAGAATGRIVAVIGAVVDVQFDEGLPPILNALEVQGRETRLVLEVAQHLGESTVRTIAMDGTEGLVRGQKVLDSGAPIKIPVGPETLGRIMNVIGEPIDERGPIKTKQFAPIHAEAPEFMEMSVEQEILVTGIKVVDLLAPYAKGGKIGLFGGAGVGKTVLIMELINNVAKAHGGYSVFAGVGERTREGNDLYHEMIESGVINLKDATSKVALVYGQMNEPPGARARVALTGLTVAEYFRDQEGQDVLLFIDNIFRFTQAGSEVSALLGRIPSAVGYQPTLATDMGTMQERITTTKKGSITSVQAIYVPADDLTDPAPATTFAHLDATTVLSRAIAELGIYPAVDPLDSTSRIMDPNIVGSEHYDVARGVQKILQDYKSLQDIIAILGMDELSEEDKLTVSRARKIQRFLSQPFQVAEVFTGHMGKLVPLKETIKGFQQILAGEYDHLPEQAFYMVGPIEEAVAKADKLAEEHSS", "assay": "DARTS with LC-MS/MS", "assay_type": "binding", "conditions": "TNC buffer pH 8.0, 10 mM CaCl2; room temperature"}, "PHD-2/Egln1": {"biological_target": "PHD-2/Egln1 (Homo sapiens, UniProt Q9GZT9)", "sequence (Q9GZT9 2-426)": "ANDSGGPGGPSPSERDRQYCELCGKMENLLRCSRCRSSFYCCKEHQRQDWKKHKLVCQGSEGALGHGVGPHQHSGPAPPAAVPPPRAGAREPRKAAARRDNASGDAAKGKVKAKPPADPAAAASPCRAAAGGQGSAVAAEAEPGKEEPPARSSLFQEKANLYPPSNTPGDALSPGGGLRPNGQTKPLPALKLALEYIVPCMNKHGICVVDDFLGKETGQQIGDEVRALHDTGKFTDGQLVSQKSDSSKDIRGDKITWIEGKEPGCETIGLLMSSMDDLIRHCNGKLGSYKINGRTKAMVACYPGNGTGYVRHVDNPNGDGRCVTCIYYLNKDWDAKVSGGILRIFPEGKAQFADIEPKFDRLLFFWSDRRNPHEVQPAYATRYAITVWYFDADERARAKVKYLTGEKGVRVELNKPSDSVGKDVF", "assay": "DARTS with Western blot, HeLa lysate", "assay_type": "binding", "conditions": "TNC buffer pH 8.0, 10 mM CaCl2; room temperature"}},
  "data": [
    {"compound": "O=C(O)CCC(=O)C(=O)O", "note": "[α-KG]", "values": [
      {"measurement": "DARTS with LC-MS/MS (Jurkat) and Western blot (HeLa)", "setting": "[1]", "value": "DARTS confirms α-KG binding specifically to ATP5B"},
      {"measurement": "DARTS with Western blot, HeLa lysate", "setting": "PHD-2/Egln1", "value": "Binding between α-KG and PHD-2/Egln1"}
    ]}
  ]
}
